# Experimental data from the supplement of paper PMC10307832.
# Tests used:
# Assay in all cases: relative viability (nuclei count vs DMSO), 5 days (fraction); higher = more cells survive
# [1] = test system: NCI-H1651
# Outline: (§1)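 Five library-drug doses in √10 steps were combined with a fixed anchor-drug dose, or a single drug was given alone, by pin tool to lung cancer cell lines in 1536-well plates the day after seeding. Nuclei were stained and counted after 5 days. Relative viability is the nuclei count in treated wells over that in vehicle wells, taken as the median of duplicate plates.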
# [2] = test system: RERF-LC-KJ
# Outline: as §1
# [3] = test system: NCI-H1703
# Outline: as §1
# [4] = test system: PC-3 [JPC-3]
# Outline: as §1
# [5] = test system: NCI-H838
# Outline: as §1
# [6] = test system: NCI-H650
# Outline: as §1
# [7] = test system: NCI-H1944
# Outline: as §1
# [8] = test system: NCI-H1648
# Outline: as §1
# [9] = test system: IA-LM
# Outline: as §1
# [10] = test system: NCI-H520
# Outline: as §1
compound,measurement,setting,value
COc1cc2nccc(Oc3ccc(NC(=O)Nc4cc(C)on4)c(Cl)c3)c2cc1OC [Tivozanib] + NC(=O)Nc1cc(-c2cccc(F)c2)sc1C(=O)N[C@H]1CCCNC1 [AZD7762] (partner 0.2 µM),relative viability,[1]; first compound 0.005 µM,0.381
same,relative viability,[1]; first compound 0.01581 µM,0.429
same,relative viability,[1]; first compound 0.05 µM,0.551
same,relative viability,[1]; first compound 0.1581 µM,0.301
same,relative viability,[1]; first compound 0.5 µM,0.421
same,relative viability,[2]; first compound 0.005 µM,0.701
same,relative viability,[2]; first compound 0.01581 µM,0.925
same,relative viability,[2]; first compound 0.05 µM,1.07
same,relative viability,[2]; first compound 0.1581 µM,0.659
same,relative viability,[2]; first compound 0.5 µM,0.892
same,relative viability,[3]; first compound 0.005 µM,0.124
same,relative viability,[3]; first compound 0.01581 µM,0.112
same,relative viability,[3]; first compound 0.05 µM,0.139
same,relative viability,[3]; first compound 0.1581 µM,0.143
same,relative viability,[3]; first compound 0.5 µM,0.118
same,relative viability,[4]; first compound 0.01581 µM,0.857
same,relative viability,[4]; first compound 0.05 µM,0.927
same,relative viability,[4]; first compound 0.1581 µM,0.741
same,relative viability,[4]; first compound 0.5 µM,0.8
same,relative viability,[5]; first compound 0.005 µM,0.918
same,relative viability,[5]; first compound 0.01581 µM,0.895
same,relative viability,[5]; first compound 0.05 µM,0.973
same,relative viability,[5]; first compound 0.1581 µM,1.04
same,relative viability,[5]; first compound 0.5 µM,0.95
same,relative viability,[6]; first compound 0.005 µM,0.771
same,relative viability,[6]; first compound 0.01581 µM,1.08
same,relative viability,[6]; first compound 0.05 µM,0.976
same,relative viability,[6]; first compound 0.1581 µM,0.958
same,relative viability,[6]; first compound 0.5 µM,0.683
same,relative viability,[7]; first compound 0.005 µM,0.392
same,relative viability,[7]; first compound 0.01581 µM,0.552
same,relative viability,[7]; first compound 0.05 µM,0.378
same,relative viability,[7]; first compound 0.1581 µM,0.452
same,relative viability,[7]; first compound 0.5 µM,0.487
same,relative viability,[8]; first compound 0.005 µM,0.666
same,relative viability,[8]; first compound 0.01581 µM,0.708
same,relative viability,[8]; first compound 0.05 µM,0.693
same,relative viability,[8]; first compound 0.1581 µM,0.585
same,relative viability,[8]; first compound 0.5 µM,0.695
COc1cc2nccc(Oc3ccc(NC(=O)Nc4cc(C)on4)c(Cl)c3)c2cc1OC [Tivozanib] + O=C(CCCCCCC(=O)Nc1ccccc1)NO [Vorinostat] (partner 1 µM),relative viability,[9]; first compound 0.005 µM,0.93
same,relative viability,[9]; first compound 0.01581 µM,0.981
same,relative viability,[9]; first compound 0.05 µM,0.872
same,relative viability,[9]; first compound 0.5 µM,0.836
same,relative viability,[1]; first compound 0.005 µM,0.444
same,relative viability,[1]; first compound 0.01581 µM,0.53
same,relative viability,[1]; first compound 0.05 µM,0.619
same,relative viability,[1]; first compound 0.1581 µM,0.519
same,relative viability,[1]; first compound 0.5 µM,0.471
same,relative viability,[2]; first compound 0.005 µM,0.621
same,relative viability,[2]; first compound 0.01581 µM,0.616
same,relative viability,[2]; first compound 0.05 µM,0.734
same,relative viability,[2]; first compound 0.1581 µM,0.58
same,relative viability,[2]; first compound 0.5 µM,0.593
same,relative viability,[4]; first compound 0.01581 µM,0.814
same,relative viability,[4]; first compound 0.05 µM,0.801
same,relative viability,[4]; first compound 0.1581 µM,0.691
same,relative viability,[4]; first compound 0.5 µM,0.592
same,relative viability,[5]; first compound 0.005 µM,0.75
same,relative viability,[5]; first compound 0.01581 µM,0.792
same,relative viability,[5]; first compound 0.05 µM,0.802
same,relative viability,[5]; first compound 0.1581 µM,0.746
same,relative viability,[5]; first compound 0.5 µM,0.696
same,relative viability,[6]; first compound 0.005 µM,0.348
same,relative viability,[6]; first compound 0.01581 µM,0.379
same,relative viability,[6]; first compound 0.05 µM,0.414
same,relative viability,[6]; first compound 0.1581 µM,0.29
same,relative viability,[6]; first compound 0.5 µM,0.296
same,relative viability,[7]; first compound 0.005 µM,0.443
same,relative viability,[7]; first compound 0.01581 µM,0.59
same,relative viability,[7]; first compound 0.05 µM,0.534
same,relative viability,[7]; first compound 0.1581 µM,0.5
same,relative viability,[7]; first compound 0.5 µM,0.609
same,relative viability,[10]; first compound 0.005 µM,0.729
same,relative viability,[10]; first compound 0.01581 µM,0.754
same,relative viability,[10]; first compound 0.05 µM,0.691
same,relative viability,[10]; first compound 0.1581 µM,0.675
same,relative viability,[10]; first compound 0.5 µM,0.607
same,relative viability,[8]; first compound 0.005 µM,0.453
same,relative viability,[8]; first compound 0.01581 µM,0.706
same,relative viability,[8]; first compound 0.05 µM,0.804
same,relative viability,[8]; first compound 0.1581 µM,0.796
same,relative viability,[8]; first compound 0.5 µM,0.423
